Measured values published in US7569229B2, “Monocyte locomotion inhibitory factor” (Center for Blood Research, Inc., priority 1998, dated 2009).

Tests used:
[1] = tested on: human peripheral blood MP; assay: Inhibition of Luminol enhanced chemiluminescence (respiratory burst) in opsonized zymosan activated MP; assay type: cell-based; details: measured as mV/10^6 cells over a 29-30 minute period; six experiments; comparing experimental conditions, except 1 vs 10 μg of construct; FIG. 3A
Description: (§1) (b) Preparation of cells. MP (95±2%) and neutrophils (95±2%) were obtained from the peripheral blood of fasting, non-smoking individual donors, using Ficoll-Paque centrifugation and further enrichment of MP by nylon wool adherence. Cell viability was established (≧94%) before and after the experiments by trypan blue dye exclusion.
(§2) (c) MLIF activity. In vitro MLIF activity was assessed either by the inhibition of MP chemotaxis towards zymosan (Sigma) activated serum in double-filter (upper filter 5.0 μm pore size (Nuclepore), lower cell-impermeable filter 8.0 μm pore size (Sartorius)) Boyden chambers, or by the inhibition of MP or neutrophil, Luminol™ (Eastman Kodak) enhanced chemiluminescence after opsonized zymosan particle ingestion, measured in Biorbit 1250 chemiluminometer (LKB) (n>6). In vivo MLIF activity was measured by its capacity to inhibit DNCB (1-chloro-2-4 dinitrobenzene) contact hypersensitivity reactions in individually-caged Harley short hair adult guinea pigs previously (14 days) sensitized with a vesicant DNCB dose (10 mg/ml acetone olive oil (4:1) soaked 5 mm diameter Whatman #2 filter paper disks). […] Disks were removed after 24 h, and redness-induration measured blindly a day later. […]
(§3) In vitro activity of native MLIF and its synthetic custom construct is measured. […]

[2] = tested on: polymorphonuclear eosinophils; assay: Effect on eosinophils (locomotion or metabolism); assay type: cell-based; details: locomotion or metabolism of polymorphonuclear eosinophils
[3] = tested on: human peripheral blood neutrophils; assay: Inhibition of Luminol enhanced chemiluminescence (respiratory burst) in opsonized zymosan activated neutrophils; assay type: cell-based; details: measured as mV/10^6 cells over a 29-30 minute period; six experiments; comparing experimental conditions; FIG. 3B
Description: as §1, §2, §3

[4] = tested on: human peripheral blood MP; assay: Inhibition of MP chemotaxis towards zymosan activated serum in double-filter Boyden chambers; assay type: cell-based; details: Boyden chamber; native MLIF and construct in similar concentrations, comparable to each other; n=8 for each group; FIG. 3C
Description: as §1, §2, §3

[5] = tested on: DNCB contact hypersensitivity reactions in guinea pigs; assay: Inhibition of DNCB contact hypersensitivity skin reaction; assay type: in vivo, guinea pig; details: for Histology of inhibited DNCB reactions: biopsies, compared to normal, non-interfered DNCB reactions; for DNCB skin reaction (mm diameter, or positive/negative with cut-off 5 mm) compared to PBS or virgin axenic medium control: intradermal injection 0.05 ml, native MLIF 8 μg/ml, custom construct 1, 10 or 100 μg/ml, comparable among them, FIG. 4
Description: (c) MLIF activity. In vitro MLIF activity was assessed either by the inhibition of MP chemotaxis towards zymosan (Sigma) activated serum in double-filter (upper filter 5.0 μm pore size (Nuclepore), lower cell-impermeable filter 8.0 μm pore size (Sartorius)) Boyden chambers, or by the inhibition of MP or neutrophil, Luminol™ (Eastman Kodak) enhanced chemiluminescence after opsonized zymosan particle ingestion, measured in Biorbit 1250 chemiluminometer (LKB) (n>6). In vivo MLIF activity was measured by its capacity to inhibit DNCB (1-chloro-2-4 dinitrobenzene) contact hypersensitivity reactions in individually-caged Harley short hair adult guinea pigs previously (14 days) sensitized with a vesicant DNCB dose (10 mg/ml acetone olive oil (4:1) soaked 5 mm diameter Whatman #2 filter paper disks). Intradermal injections of 0.05 ml of either native MLIF (8 μg/ml), MLIF custom construct (0.001-100 μg/ml), or pyrogen free phosphate buffered saline pH 7.4, were applied just beneath and simultaneous to the application of the eliciting dose of DNCB (0.05 mg/ml soaked paper disks). Disks were removed after 24 h, and redness-induration measured blindly a day later. Biopsies were obtained for histological evaluation in selected samples. The animals were not sacrificed.
(f) Statistical analysis. Results of in vitro MLIF activity were analyzed by non-parametric Mann-Whitney or Kruskall-Wallis analysis of variance test, and in vivo activity results by Student's t and Fisher's exact tests.
The reaction is measured in mm diameter against the eliciting dose, or as positive or negative reactions of the same with a cut-off criterium of 5 mm in diameter.

[6] = tested on: human mononuclear phagocytes; assay: Cytoplasmic cyclic AMP in human mononuclear phagocytes; assay type: cell-based; details: interaction through a receptor on human mononuclear phagocytes

Row | Substance | Storage stability (at −70° C.) | Heat stability (incubation at 56° C.) | Areas under the curve of chemiluminescence, MP [1] | Effect on other cells, such as eosinophils [2] | Areas under the curve of chemiluminescence, neutrophils [3] | Human peripheral blood MP chemotaxis compared to the normal chemotactic runs (i.e., 100%) [4] | Histology of inhibited DNCB reactions [5] | DNCB skin reaction (mm diameter, or positive/negative with cut-off 5 mm) compared to PBS or virgin axenic medium control [5] | Cytoplasmic mediator cyclic AMP [6]
1 | M - Q - C - N - S (MQCNS; listed as Entamoeba histolytica) [native MLIF, oligopeptide isolated from the supernatant fluid of axenically grown E. histolytica, about 583 Daltons] | storable | heat stable | significantly (p<0.01) different | does not affect | significantly (p<0.01) different | significantly lower (p<0.01) | scarce mononuclear perivascular infiltrate | significantly different (p<0.001) | increase
2 | MQCNS [custom construct] | – | – | significantly (p<0.01) different | – | significantly (p<0.01) different | significantly lower (p<0.01) | scarce mononuclear perivascular infiltrate | significantly different (p<0.001) | –
